Calls of active or inactive are those of the source. No cut-off for these calls is given here.
Assays:
[1] = target: T1, Amine oxidase [flavin-containing] B (Homo sapiens, UniProt P27338)
T1 sequence (P27338 whole entry): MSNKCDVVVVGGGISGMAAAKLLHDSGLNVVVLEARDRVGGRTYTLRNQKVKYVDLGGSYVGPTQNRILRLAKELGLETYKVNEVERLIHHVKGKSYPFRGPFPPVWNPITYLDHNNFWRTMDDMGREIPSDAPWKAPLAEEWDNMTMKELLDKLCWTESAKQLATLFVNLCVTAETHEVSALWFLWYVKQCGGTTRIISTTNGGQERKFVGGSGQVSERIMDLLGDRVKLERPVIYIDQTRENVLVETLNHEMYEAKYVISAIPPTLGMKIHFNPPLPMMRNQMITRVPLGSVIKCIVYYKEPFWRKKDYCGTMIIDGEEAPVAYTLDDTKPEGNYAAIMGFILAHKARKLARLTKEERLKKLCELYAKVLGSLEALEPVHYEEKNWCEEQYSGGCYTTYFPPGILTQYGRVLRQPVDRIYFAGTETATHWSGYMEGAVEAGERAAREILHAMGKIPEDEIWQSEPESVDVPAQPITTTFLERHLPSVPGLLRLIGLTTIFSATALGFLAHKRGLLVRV
Description: Inhibition of human recombinant MAO-B using benzylamine as substrate preincubated for 15 mins under dark condition followed by substrate addition measured after 20 mins by fluorescence assay

in vitro = details: PAMPA
Description: Permeability of the compound at 100 mg/mL after 10 hrs by PAMPA

Acetylcholinesterase [2] = target: Acetylcholinesterase (Electrophorus electricus, UniProt O42275)
Description: Inhibition of electric eel AChE using acetylthiocholine chloride as substrate preincubated for 15 mins followed by substrate addition measured every 1 min by Ellman method

Acetylcholinesterase [3] = target: T2, Acetylcholinesterase (Homo sapiens, UniProt P22303); test: Inhibition of human erythrocytic AChE using acetylthiocholine chloride as substrate preincubated for 15 mins followed by substrate addition measured every 1 min by Ellman method
Cholinesterase = Cholinesterase (Equus caballus, UniProt P81908)
Description: Inhibition of horse serum BuChE using butylthiocholine chloride as substrate preincubated for 15 mins followed by substrate addition measured every 1 min by Ellman method

[4] = target: T3, Amine oxidase [flavin-containing] A (Homo sapiens, UniProt P21397); details: 20 min, read-out: INH
T3 sequence (P21397 whole entry): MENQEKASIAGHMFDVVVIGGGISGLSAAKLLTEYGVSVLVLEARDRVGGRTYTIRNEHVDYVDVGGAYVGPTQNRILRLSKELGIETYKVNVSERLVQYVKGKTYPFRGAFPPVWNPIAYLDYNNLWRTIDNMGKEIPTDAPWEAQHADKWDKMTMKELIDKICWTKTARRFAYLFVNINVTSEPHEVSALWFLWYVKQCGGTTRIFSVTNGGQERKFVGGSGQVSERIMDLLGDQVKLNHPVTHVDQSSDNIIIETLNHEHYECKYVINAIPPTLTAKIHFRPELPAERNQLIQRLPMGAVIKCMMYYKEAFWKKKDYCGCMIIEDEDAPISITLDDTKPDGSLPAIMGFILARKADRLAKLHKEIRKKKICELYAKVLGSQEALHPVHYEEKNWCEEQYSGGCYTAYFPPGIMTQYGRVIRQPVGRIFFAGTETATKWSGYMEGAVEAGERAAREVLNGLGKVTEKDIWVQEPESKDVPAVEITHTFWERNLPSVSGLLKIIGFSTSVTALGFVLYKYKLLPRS
Description: Inhibition of human recombinant MAO-A using p-tyramine as substrate assessed as formation of H2O2 at 100 uM preincubated for 15 mins under dark condition followed by substrate addition measured after 20 mins by fluorescence assay relative to control

[5] = target: T1, Amine oxidase [flavin-containing] B; test: Inhibition of human recombinant MAO-B using benzylamine as substrate at 20 uM preincubated for 15 mins under dark condition followed by substrate addition measured after 20 mins by fluorescence assay
[6] = target: T1, Amine oxidase [flavin-containing] B; test: Irreversible inhibition of human recombinant MAO-B at 400 nM preincubated for 15 mins followed by repeated washing by centrifugation-ultrafiltration method relative to control
[7] = target: T1, Amine oxidase [flavin-containing] B; test: Inhibition of human recombinant MAO-B at 400 nM incubated for 15 mins prior to washing relative to control; details: 0.25 h
[8] = target: Acetylcholinesterase (Electrophorus electricus) (UniProt O42275); test: Mixed-type inhibition of electric eel AChE using acetylthiocholine chloride as substrate assessed as decrease in Vmax at 60 to 100 nM preincubated for 15 mins followed by substrate addition by Lineweaver-Burk plot analysis
[9] = target: T1, Amine oxidase [flavin-containing] B; test: Irreversible inhibition of human recombinant MAO-B at 1 uM preincubated for 15 mins followed by repeated washing by centrifugation-ultrafiltration method relative to control
[10] = target: T1, Amine oxidase [flavin-containing] B; test: Inhibition of human recombinant MAO-B at 1 uM incubated for 15 mins prior to washing relative to control; details: 0.25 h
Acetylcholinesterase [11] = target: T2, Acetylcholinesterase; test: Inhibition of AChE (unknown origin)-induced beta-amyloid aggregation
[12] = target: Acetylcholinesterase (Electrophorus electricus) (UniProt O42275); test: Mixed-type inhibition of electric eel AChE using acetylthiocholine chloride as substrate assessed as increase in Km at 60 to 100 nM preincubated for 15 mins followed by substrate addition by Lineweaver-Burk plot analysis

Cholinesterase, sequence (P81908 whole entry): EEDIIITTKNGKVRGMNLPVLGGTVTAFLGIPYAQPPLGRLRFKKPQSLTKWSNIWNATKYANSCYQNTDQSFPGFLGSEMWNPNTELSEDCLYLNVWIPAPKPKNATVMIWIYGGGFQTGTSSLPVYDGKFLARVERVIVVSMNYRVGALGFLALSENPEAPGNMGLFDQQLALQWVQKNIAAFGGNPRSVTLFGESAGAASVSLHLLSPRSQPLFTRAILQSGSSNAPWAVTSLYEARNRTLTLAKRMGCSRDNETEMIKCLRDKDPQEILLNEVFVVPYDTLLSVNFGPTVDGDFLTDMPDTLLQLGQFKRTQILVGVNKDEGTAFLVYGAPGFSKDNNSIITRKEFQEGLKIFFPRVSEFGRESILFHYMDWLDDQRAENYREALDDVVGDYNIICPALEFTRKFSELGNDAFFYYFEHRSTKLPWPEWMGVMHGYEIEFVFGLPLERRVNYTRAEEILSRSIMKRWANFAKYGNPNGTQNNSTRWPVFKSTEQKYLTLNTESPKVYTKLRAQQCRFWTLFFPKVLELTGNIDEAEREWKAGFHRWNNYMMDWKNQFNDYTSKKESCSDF
Acetylcholinesterase (Electrophorus electricus, UniProt O42275), sequence (O42275 whole entry): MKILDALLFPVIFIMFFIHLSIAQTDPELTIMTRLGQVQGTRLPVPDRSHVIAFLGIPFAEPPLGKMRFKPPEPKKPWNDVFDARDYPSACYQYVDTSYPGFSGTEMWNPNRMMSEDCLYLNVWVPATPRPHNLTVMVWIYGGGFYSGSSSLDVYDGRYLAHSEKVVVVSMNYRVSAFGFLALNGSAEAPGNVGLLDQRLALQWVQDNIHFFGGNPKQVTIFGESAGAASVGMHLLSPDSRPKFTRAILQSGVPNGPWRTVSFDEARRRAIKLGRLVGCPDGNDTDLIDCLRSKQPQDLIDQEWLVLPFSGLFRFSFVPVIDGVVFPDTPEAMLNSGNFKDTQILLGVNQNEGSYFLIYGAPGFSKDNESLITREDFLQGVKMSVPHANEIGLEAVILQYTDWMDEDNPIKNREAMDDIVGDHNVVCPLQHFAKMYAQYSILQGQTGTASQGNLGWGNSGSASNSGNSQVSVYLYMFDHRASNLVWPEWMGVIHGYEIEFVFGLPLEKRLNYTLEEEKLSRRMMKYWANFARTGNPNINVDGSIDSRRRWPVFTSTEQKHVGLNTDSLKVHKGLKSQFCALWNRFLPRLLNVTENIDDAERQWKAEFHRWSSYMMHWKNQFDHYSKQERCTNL
T2 sequence (P22303 whole entry): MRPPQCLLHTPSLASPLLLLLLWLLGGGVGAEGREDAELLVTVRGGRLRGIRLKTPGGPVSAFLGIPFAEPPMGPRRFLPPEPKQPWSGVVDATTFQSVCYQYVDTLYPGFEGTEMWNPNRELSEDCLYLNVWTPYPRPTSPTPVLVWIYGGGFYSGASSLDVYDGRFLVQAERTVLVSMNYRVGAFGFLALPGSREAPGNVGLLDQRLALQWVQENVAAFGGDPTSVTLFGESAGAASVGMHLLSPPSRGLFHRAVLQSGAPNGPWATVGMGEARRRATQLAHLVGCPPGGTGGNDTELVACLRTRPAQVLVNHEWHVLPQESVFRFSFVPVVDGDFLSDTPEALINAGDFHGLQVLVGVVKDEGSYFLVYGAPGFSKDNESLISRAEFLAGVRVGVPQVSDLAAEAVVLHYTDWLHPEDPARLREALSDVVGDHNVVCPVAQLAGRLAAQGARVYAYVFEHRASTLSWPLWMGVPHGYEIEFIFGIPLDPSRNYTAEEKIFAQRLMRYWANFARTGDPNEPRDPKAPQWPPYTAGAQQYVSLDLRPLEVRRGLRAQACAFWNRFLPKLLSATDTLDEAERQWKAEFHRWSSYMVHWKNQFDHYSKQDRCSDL
Acetylcholinesterase (Electrophorus electricus), sequence (O42275 24-633 limits assumed): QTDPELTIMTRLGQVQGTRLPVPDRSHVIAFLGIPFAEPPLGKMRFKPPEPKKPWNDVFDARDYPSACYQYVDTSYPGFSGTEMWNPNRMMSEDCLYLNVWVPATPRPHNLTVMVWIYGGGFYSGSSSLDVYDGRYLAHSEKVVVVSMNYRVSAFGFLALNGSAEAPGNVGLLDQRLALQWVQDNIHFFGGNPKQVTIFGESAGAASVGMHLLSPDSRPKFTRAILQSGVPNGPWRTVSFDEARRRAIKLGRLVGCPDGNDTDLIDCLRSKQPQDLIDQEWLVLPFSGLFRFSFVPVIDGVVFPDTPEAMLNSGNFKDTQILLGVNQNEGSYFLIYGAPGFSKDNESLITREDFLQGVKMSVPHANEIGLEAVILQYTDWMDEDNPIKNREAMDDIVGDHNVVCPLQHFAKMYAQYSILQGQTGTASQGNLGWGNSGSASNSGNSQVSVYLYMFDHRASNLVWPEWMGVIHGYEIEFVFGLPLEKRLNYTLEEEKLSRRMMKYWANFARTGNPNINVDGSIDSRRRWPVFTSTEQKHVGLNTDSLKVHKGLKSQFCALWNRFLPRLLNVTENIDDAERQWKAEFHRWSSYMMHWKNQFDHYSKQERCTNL

SMILES	IC50 [1] [nM]	Papp at 10 h, 100 mg/mL (in vitro) [×10⁻⁶ cm/s]	IC50 (Acetylcholinesterase [2]) [nM]	IC50 (Acetylcholinesterase [3]) [nM]	IC50 (Cholinesterase) [nM]	inhibition at 100 µM [4] [%]	inhibition (INH) [5]	inhibition at 0.4 µM [6] [%]	inhibition at 0.4 µM [7] [%]	inhibition [8]	inhibition at 1 µM [9] [%]	inhibition at 1 µM [10] [%]	inhibition (Acetylcholinesterase [11])	inhibition [12]
O=C1/C(=C/c2ccc(F)cc2)COc2cc(OCCCCCCNc3c4c(nc5ccccc35)CCCC4)ccc21	1090	4	70.1	105	44.2	58.4								
COc1cc(/C=C2\COc3cc(OCCCCCCNc4c5c(nc6ccccc46)CCCC5)ccc3C2=O)cc(OC)c1OC			106		109	25.7	Not Active							
CCN(CC)c1ccc(/C=C2\COc3cc(OCCCCCCNc4c5c(nc6ccccc46)CCCC5)ccc3C2=O)cc1			693		235	22.4	Not Active							
Cc1ccc(/C=C2\COc3cc(OCCCCCCNc4c5c(nc6ccccc46)CCCC5)ccc3C2=O)cc1	1240		129		54.6	60.5								
COc1ccc(/C=C2\COc3cc(O)ccc3C2=O)cc1 [BONDUCELLIN]	1060		> 100000		> 100000	24.1								
COc1ccc(/C=C2\COc3cc(OCCCCCCCCNc4c5c(nc6cc(Cl)ccc46)CCCC5)ccc3C2=O)cc1	1560		188		612	33.1								
COc1ccc(CC2COc3cc(OCCCCCCNc4c5c(nc6ccccc46)CCCC5)ccc3C2=O)cc1 (centres undefined)	1110	2.8	91.7		27.4	78.2								
COc1cccc(/C=C2\COc3cc(OCCCCCCNc4c5c(nc6ccccc46)CCCC5)ccc3C2=O)c1	2200		142		47.1	54.1								
COc1ccc(/C=C2\COc3cc(OCCCCCCNc4c5c(nc6ccccc46)CCCC5)ccc3C2=O)cc1	401	6.8	67.9	157	33	48.3		33.5	47.1	Active	67.5	78.4	Active	Active
COc1ccc(/C=C2\COc3cc(OCCCCCCCCNc4c5c(nc6ccccc46)CCCC5)ccc3C2=O)cc1	518	4.9	68.5	122	93.1	64.8								
COc1ccc(/C=C2\COc3cc(OCCCCCNc4c5c(nc6ccccc46)CCCC5)ccc3C2=O)cc1	1160	6.6	78.3	98	23.6	58.4								
COc1ccc(/C=C2\COc3cc(OCCCCCCNc4c5c(nc6cc(Cl)ccc46)CCCC5)ccc3C2=O)cc1	1360		123		25.9	15.3								
CN(C)c1ccc(/C=C2\COc3cc(OCCCCCCNc4c5c(nc6ccccc46)CCCC5)ccc3C2=O)cc1	1030		115		65.7	31.5								
O=C1/C(=C/c2ccc(Cl)cc2)COc2cc(OCCCCCCNc3c4c(nc5ccccc35)CCCC4)ccc21	15400	1.1	101		44.5	23.3								
COc1ccc(/C=C2\COc3cc(OCCCCCCNc4c5c(nc6ccccc46)CCCC5)ccc3C2=O)cc1OC	19700		117		34.7	51.6								
COc1ccc(/C=C2\COc3cc(OCCCCCCCCCNc4c5c(nc6ccccc46)CCCC5)ccc3C2=O)cc1	437		169		30.9	60.2								
COc1ccccc1/C=C1\COc2cc(OCCCCCCNc3c4c(nc5ccccc35)CCCC4)ccc2C1=O	1790		151		29.9	70.3								
COc1ccc(/C=C2\COc3cc(OCCCCCCCCCCNc4c5c(nc6ccccc46)CCCC5)ccc3C2=O)cc1	3430		888		6.2	69.6								
